Tested on: Hep G2 cells
Experiment: Cytotoxicity test using Hep G2 cells (MTT assay)
Type: cell-based
Details: up to 500 μg/ml; zinc only as a comparison
Description: Cytotoxicity Test Using Hep G2 Cells:
[…] P. (2000). “Cytotoxicity and Viability Assays”. In Masters, J. R. W. Animal Cell Culture: A Practical Approach, 3rd) using Hep G2 cells were conducted on these preparations.

[Zn] [zinc]
Cytotoxicity of Hep G2 cells: no cytotoxicity of Hep G2 cells was confirmed
